Assay results: patent publication US11174298B2, “Preparation and use of ginsentides and ginsentide-like peptides” (priority 2016, dated 2021)

How the values were obtained:
H9c2 cells = assay: MTT cell viability of H9c2 cells, co-treatment with DOX; format: cell-based, rat
Method: To identify whether ginsentides can attenuate DOX-induced cardiotoxicity in cardiomyocytes, cell viability after drug treatment was measured by MTT assay.
After 24 h co-treatment of DOX with ginsentides, the viability of H9c2 cells was enhanced by ˜20% compared to the DOX-alone treatment (FIG. 43.).

α1-adrenergic receptor = assay: Phenylephrine-induced aortic ring contraction, isometric tension, ex vivo; set-up: species or system rat; settings: thoracic aorta pre-contracted with phenylephrine (0.1 μM)
isolated thoracic aorta = assay: KCl-induced aortic ring contraction, isometric tension, ex vivo; set-up: species or system rat; settings: thoracic aorta pre-contracted with KCl (30 mM)
[1] = test system: human endothelial cells (HUVEC-CS); assay: Cellular NO synthesis in HUVEC-CS (DAF-2 DA staining); format: cell-based
[2] = Heparin HPLC affinity column; format: binding
From the text: Heparin-binding properties of ginsentides using heparin HPLC affinity column.

CC(C)=CCC[C@](C)(O[C@@H]1O[C@H](CO[C@@H]2O[C@H](CO)[C@@H](O)[C@H](O)[C@H]2O)[C@@H](O)[C@H](O)[C@H]1O)[C@H]1CC[C@]2(C)[C@@H]1[C@H](O)C[C@@H]1[C@@]3(C)CC[C@H](O[C@@H]4O[C@H](CO)[C@@H](O)[C@H](O)[C@H]4O[C@@H]4O[C@H](CO)[C@@H](O)[C@H](O)[C@H]4O)C(C)(C)[C@@H]3CC[C@]12C [ginsenoside Rb1]
Protective effects on cardiomyocytes during DOX-treatment (H9c2 cells): did not showed any protective effects

CC(C)=CCC[C@](C)(O[C@@H]1O[C@H](CO)[C@@H](O)[C@H](O)[C@H]1O)[C@H]1CC[C@]2(C)[C@@H]1[C@H](O)C[C@@H]1[C@@]3(C)CC[C@H](O)C(C)(C)[C@@H]3[C@@H](O[C@@H]3O[C@H](CO)[C@@H](O)[C@H](O)[C@H]3O[C@@H]3O[C@@H](C)[C@H](O)[C@@H](O)[C@H]3O)C[C@]12C [ginsenoside Re]
Protective effects on cardiomyocytes during DOX-treatment (H9c2 cells): did not showed any protective effects

CC(C)=CCC[C@](C)(O[C@@H]1O[C@H](CO)[C@@H](O)[C@H](O)[C@H]1O)[C@H]1CC[C@]2(C)[C@@H]1[C@H](O)C[C@@H]1[C@@]3(C)CC[C@H](O)C(C)(C)[C@@H]3[C@@H](O[C@@H]3O[C@H](CO)[C@@H](O)[C@H](O)[C@H]3O)C[C@]12C [ginsenoside Rg1]
Protective effects on cardiomyocytes during DOX-treatment (H9c2 cells): did not showed any protective effects

CISSGGWCGFD-LHGCCG--NCGCLV--GFCYGTGC- (CISSGGWCGFDLHGCCGNCGCLVGFCYGTGC; listed as Panax quinquefolius) [Ginsentide TP8]
Relaxation of phenylephrine-induced aortic ring contraction (α1-adrenergic receptor): relaxes phenylephrine-induced aortic ring contraction
Relaxation of KCl-induced contracted aortic ring (isolated thoracic aorta): not KCI-induced contracted aortic ring
Cellular NO release compared among ginsentides [1]: comparable cellular NO release

CKSAGTWCGFD-PHGCCG--SCGCLV--GFCYGVSC- (CKSAGTWCGFDPHGCCGSCGCLVGFCYGVSC; Panax ginseng) [Ginsentide TP3]
Relaxation of phenylephrine-induced aortic ring contraction (α1-adrenergic receptor): relaxes phenylephrine-induced aortic ring contraction
Relaxation of KCl-induced contracted aortic ring (isolated thoracic aorta): not KCI-induced contracted aortic ring
Cellular NO release compared among ginsentides [1]: comparable cellular NO release
Retention in heparin HPLC affinity column [2]: retented in a heparin HPLC affinity column

CKSGGSWCGFD-PHGCCG--NCGCLV--GFCYGTGC- [Ginsentide TP9]
Retention in heparin HPLC affinity column [2]: retented in a heparin HPLC affinity column
